Results published in ChEMBL document CHEMBL2440080, “Synthesis and biological evaluation of novel acylhydrazone derivatives as potential antitumor agents” (Bioorg Med Chem, 2013).

Assays:
PC-3 = experiment: Cytotoxicity against human PC3 cells after 48 hrs by sulforhodamine B assay; format: functional; settings: PC-3, 48 h
U-251 = experiment: Cytotoxicity against human U251 cells after 48 hrs by sulforhodamine B assay; format: functional; settings: U-251, 48 h
OVCAR-3 = experiment: Cytotoxicity against human OVCAR3 cells after 48 hrs by sulforhodamine B assay; format: functional; settings: OVCAR-3, 48 h
NCI-H460 = experiment: Cytotoxicity against human NCI-H460 cells after 48 hrs by sulforhodamine B assay; format: functional; settings: NCI-H460, 48 h
ACHN = experiment: Cytotoxicity against human ACHN cells after 48 hrs by sulforhodamine B assay; format: functional
TK-10 = experiment: Cytotoxicity against human TK10 cells after 48 hrs by sulforhodamine B assay; format: functional; settings: TK-10, 48 h
HCT-116 = experiment: Cytotoxicity against human HCT116 cells after 48 hrs by sulforhodamine B assay; format: functional; settings: HCT-116, 48 h
CCRF-CEM = experiment: Cytotoxicity against human CCRF-CEM cells after 48 hrs by sulforhodamine B assay; format: functional
NCI/ADR-RES = experiment: Cytotoxicity against human NCI/ADR-RES cells after 48 hrs by sulforhodamine B assay; format: functional
CAKI-1 = experiment: Cytotoxicity against human CAKI-1 cells after 48 hrs by sulforhodamine B assay; format: functional; settings: CAKI-1, 48 h
T47D = experiment: Cytotoxicity against human T47D cells after 48 hrs by sulforhodamine B assay; format: functional
RXF 393 = experiment: Cytotoxicity against human RXF393 cells after 48 hrs by sulforhodamine B assay; format: functional; settings: RXF 393, 48 h
[1] = Cytotoxicity against human EKVX cells after 48 hrs by sulforhodamine B assay; format: functional
OVCAR-4 = experiment: Cytotoxicity against human OVCAR4 cells after 48 hrs by sulforhodamine B assay; format: functional; settings: OVCAR-4, 48 h
BT-549 = experiment: Cytotoxicity against human BT549 cells after 48 hrs by sulforhodamine B assay; format: functional; settings: BT-549, 48 h
SNB-75 = experiment: Cytotoxicity against human SNB75 cells after 48 hrs by sulforhodamine B assay; format: functional; settings: SNB-75, 48 h
HCT-15 = experiment: Cytotoxicity against human HCT15 cells after 48 hrs by sulforhodamine B assay; format: functional; settings: HCT-15, 48 h
IGROV-1 = experiment: Cytotoxicity against human IGROV1 cells after 48 hrs by sulforhodamine B assay; format: functional; settings: IGROV-1, 48 h
NCI-H322M = experiment: Cytotoxicity against human NCI-H322M cells after 48 hrs by sulforhodamine B assay; format: functional
SF-268 = experiment: Cytotoxicity against human SF268 cells after 48 hrs by sulforhodamine B assay; format: functional; settings: SF-268, 48 h
KM12 = experiment: Cytotoxicity against human KM12 cells after 48 hrs by sulforhodamine B assay; format: functional; settings: KM12, 48 h
Mus musculus = experiment: Toxicity in athymic nude mouse assessed as survival at 400 mg/kg, ip measured after 2 weeks; format: organism-based; set-up: dose 400 mg/kg, route intraperitoneal; settings: in vivo, 336 h
RPMI-8226 = experiment: Cytotoxicity against human RPMI8226 cells after 48 hrs by sulforhodamine B assay; format: functional; settings: RPMI-8226, 48 h
LOX IMVI = experiment: Cytotoxicity against human LOXIMVI cells after 48 hrs by sulforhodamine B assay; format: functional
HOP-62 = experiment: Cytotoxicity against human HOP62 cells after 48 hrs by sulforhodamine B assay; format: functional; settings: HOP-62, 48 h
DU-145 = experiment: Cytotoxicity against human DU145 cells after 48 hrs by sulforhodamine B assay; format: functional; settings: DU-145, 48 h
OVCAR-8 = experiment: Cytotoxicity against human OVCAR8 cells after 48 hrs by sulforhodamine B assay; format: functional; settings: OVCAR-8, 48 h
MOLT-4 = experiment: Cytotoxicity against human MOLT4 cells after 48 hrs by sulforhodamine B assay; format: functional; settings: MOLT-4, 48 h
UACC-62 = experiment: Cytotoxicity against human UACC62 cells after 48 hrs by sulforhodamine B assay; format: functional; settings: UACC-62, 48 h
SR = experiment: Cytotoxicity against human SR cells after 48 hrs by sulforhodamine B assay; format: functional
SF-295 = experiment: Cytotoxicity against human SF295 cells after 48 hrs by sulforhodamine B assay; format: functional; settings: SF-295, 48 h
HOP-92 = experiment: Cytotoxicity against human HOP92 cells after 48 hrs by sulforhodamine B assay; format: functional; settings: HOP-92, 48 h
M14 = experiment: Cytotoxicity against human M14 cells after 48 hrs by sulforhodamine B assay; format: functional; settings: M14, 48 h
HL-60(TB) = experiment: Cytotoxicity against human HL-60(TB) cells after 48 hrs by sulforhodamine B assay; format: functional; settings: HL-60, 48 h
NCI-H226 = experiment: Cytotoxicity against human NCI-H226 cells after 48 hrs by sulforhodamine B assay; format: functional; settings: NCI-H226, 48 h
OVCAR-5 = experiment: Cytotoxicity against human OVCAR5 cells after 48 hrs by sulforhodamine B assay; format: functional; settings: OVCAR-5, 48 h
NCI-H522 = experiment: Cytotoxicity against human NCI-H522 cells after 48 hrs by sulforhodamine B assay; format: functional; settings: NCI-H522, 48 h
A549 = experiment: Cytotoxicity against human A549/ATCC cells after 48 hrs by sulforhodamine B assay; format: functional; settings: A549, 48 h
SNB-19 = experiment: Cytotoxicity against human SNB19 cells after 48 hrs by sulforhodamine B assay; format: functional; settings: SNB-19, 48 h
MCF7 = experiment: Cytotoxicity against human MCF7 cells after 48 hrs by sulforhodamine B assay; format: functional; settings: MCF7, 48 h
A498 = experiment: Cytotoxicity against human A498 cells after 48 hrs by sulforhodamine B assay; format: functional; settings: A498, 48 h
UO-31 = experiment: Cytotoxicity against human UO31 cells after 48 hrs by sulforhodamine B assay; format: functional; settings: UO-31, 48 h
HT-29 = experiment: Cytotoxicity against human HT-29 cells after 48 hrs by sulforhodamine B assay; format: functional; settings: HT-29, 48 h
SK-MEL-2 = experiment: Cytotoxicity against human SK-MEL-2 cells after 48 hrs by sulforhodamine B assay; format: functional; settings: SK-MEL-2, 48 h
786-0 = experiment: Cytotoxicity against human 786-0 cells after 48 hrs by sulforhodamine B assay; format: functional; settings: 786-0, 48 h
SK-OV-3 = experiment: Cytotoxicity against human SKOV3 cells after 48 hrs by sulforhodamine B assay; format: functional; settings: SK-OV-3, 48 h
[2] = Cytotoxicity against human Hs 578T cells after 48 hrs by sulforhodamine B assay; format: functional
SK-MEL-5 = experiment: Cytotoxicity against human SK-MEL-5 cells after 48 hrs by sulforhodamine B assay; format: functional; settings: SK-MEL-5, 48 h
MDA-MB-435 = experiment: Cytotoxicity against human MDA-MB-435 cells after 48 hrs by sulforhodamine B assay; format: functional; settings: MDA-MB-435, 48 h
K562 = experiment: Cytotoxicity against human K562 cells after 48 hrs by sulforhodamine B assay; format: functional; settings: K562, 48 h
SN12C = experiment: Cytotoxicity against human SN12C cells after 48 hrs by sulforhodamine B assay; format: functional
SW-620 = experiment: Cytotoxicity against human SW620 cells after 48 hrs by sulforhodamine B assay; format: functional; settings: SW-620, 48 h
SF-539 = experiment: Cytotoxicity against human SF539 cells after 48 hrs by sulforhodamine B assay; format: functional; settings: SF-539, 48 h
Malme-3M = experiment: Cytotoxicity against human MALME-3M cells after 48 hrs by sulforhodamine B assay; format: functional
NCI-H23 = experiment: Cytotoxicity against human NCI-H23 cells after 48 hrs by sulforhodamine B assay; format: functional; settings: NCI-H23, 48 h
HCC 2998 = experiment: Cytotoxicity against human HCC2998 cells after 48 hrs by sulforhodamine B assay; format: functional; settings: HCC 2998, 48 h
COLO 205 = experiment: Cytotoxicity against human COLO205 cells after 48 hrs by sulforhodamine B assay; format: functional; settings: COLO 205, 48 h
MDA-MB-231 = experiment: Cytotoxicity against human MDA-MB-231 cells after 48 hrs by sulforhodamine B assay; format: functional; settings: MDA-MB-231, 48 h
SK-MEL-28 = experiment: Cytotoxicity against human SK-MEL-28 cells after 48 hrs by sulforhodamine B assay; format: functional; settings: SK-MEL-28, 48 h
UACC-257 = experiment: Cytotoxicity against human UACC257 cells after 48 hrs by sulforhodamine B assay; format: functional; settings: UACC-257, 48 h

Structure (SMILES): COc1cccc(/C=N/NC(=O)c2ccccc2Nc2ccnc(C(F)(F)F)c2)c1O
- GI50 (PC-3): 200 nM
- GI50 (U-251): 398 nM
- GI50 (OVCAR-3): 100 nM
- GI50 (NCI-H460): 200 nM
- GI50 (ACHN): 100 nM
- GI50 (TK-10): 316 nM
- GI50 (HCT-116): 316 nM
- GI50 (CCRF-CEM): 251 nM
- GI50 (NCI/ADR-RES): 501 nM
- GI50 (CAKI-1): 200 nM
- GI50 (T47D): 501 nM
- GI50 (RXF 393): 200 nM
- GI50 [1]: 251 nM
- GI50 (OVCAR-4): 126 nM
- GI50 (BT-549): 398 nM
- GI50 (SNB-75): 251 nM
- GI50 (HCT-15): 158 nM
- GI50 (IGROV-1): 25.1 nM
- GI50 (NCI-H322M): 251 nM
- GI50 (SF-268): 631 nM
- GI50 (KM12): 398 nM
- Activity (Mus musculus): Non-toxic
- GI50 (RPMI-8226): 158 nM
- GI50 (LOX IMVI): 200 nM
- GI50 (HOP-62): 398 nM
- GI50 (DU-145): 794 nM
- GI50 (OVCAR-8): 251 nM
- GI50 (MOLT-4): 10 nM
- GI50 (UACC-62): 316 nM
- GI50 (SR): 50.1 nM
- GI50 (SF-295): 398 nM
- GI50 (HOP-92): 158 nM
- GI50 (M14): 398 nM
- GI50 (HL-60(TB)): 200 nM

Structure (SMILES): CCN(CC)c1ccc(/C=N/NC(=O)c2ccc(Nc3ccnc(C(F)(F)F)c3)cc2)c(O)c1
- GI50 (PC-3): 501 nM
- GI50 (U-251): 200 nM
- GI50 (NCI-H226): 331 nM
- GI50 (OVCAR-3): 316 nM
- GI50 (OVCAR-5): 479 nM
- GI50 (NCI-H522): 251 nM
- GI50 (NCI-H460): 204 nM
- GI50 (ACHN): 158 nM
- GI50 (TK-10): 501 nM
- GI50 (HCT-116): 158 nM
- GI50 (A549): 331 nM
- GI50 (CCRF-CEM): 120 nM
- GI50 (SNB-19): 331 nM
- GI50 (MCF7): 295 nM
- GI50 (NCI/ADR-RES): 1000 nM
- GI50 (CAKI-1): 251 nM
- GI50 (A498): 316 nM
- GI50 (UO-31): 57.5 nM
- GI50 (T47D): 331 nM
- GI50 (RXF 393): 200 nM
- GI50 (HT-29): 282 nM
- GI50 (SK-MEL-2): 398 nM
- GI50 (786-0): 182 nM
- GI50 (SK-OV-3): 234 nM
- GI50 [1]: 195 nM
- GI50 [2]: 219 nM
- GI50 (OVCAR-4): 251 nM
- GI50 (BT-549): 501 nM
- GI50 (SNB-75): 200 nM
- GI50 (SK-MEL-5): 324 nM
- GI50 (MDA-MB-435): 490 nM
- GI50 (K562): 66.1 nM
- GI50 (HCT-15): 100 nM
- GI50 (IGROV-1): 200 nM
- GI50 (NCI-H322M): 316 nM
- GI50 (SN12C): 363 nM
- GI50 (SW-620): 339 nM
- GI50 (SF-268): 200 nM
- GI50 (KM12): 398 nM
- GI50 (SF-539): 200 nM
- GI50 (Malme-3M): 389 nM
- GI50 (NCI-H23): 417 nM
- GI50 (RPMI-8226): 126 nM
- GI50 (LOX IMVI): 158 nM
- GI50 (HCC 2998): 224 nM
- GI50 (HOP-62): 251 nM
- GI50 (COLO 205): 275 nM
- GI50 (MDA-MB-231): 398 nM
- GI50 (DU-145): 501 nM
- GI50 (OVCAR-8): 398 nM
- GI50 (SK-MEL-28): 204 nM
- GI50 (MOLT-4): 162 nM
- GI50 (UACC-257): 339 nM
- GI50 (UACC-62): 251 nM
- GI50 (SR): 251 nM
- GI50 (SF-295): 263 nM
- GI50 (HOP-92): 676 nM
- GI50 (M14): 316 nM
- GI50 (HL-60(TB)): 251 nM
